Tests used:
[1] = target: T1, Human immunodeficiency virus type 1 protease (Human immunodeficiency virus 1, UniProt Q72874); assay: In vitro inhibitory activity against mutant HIV-1 (A-44)protease
[2] = target: T1, Human immunodeficiency virus type 1 protease; assay: In vitro inhibitory activity against wild type HIV-1 protease
[3] = tested on: Human immunodeficiency virus 1; assay: Inhibition of the spread of viral infection in MT-4 human T-lymphoid cells infected by IIIb isolate; format: functional; details: read-out: CIC95
[4] = Tested for the half life period in dog; format: ADME, organism-based, Canis lupus familiaris; details: in vivo
[5] = Tested for the pharmacokinetic data, maximum concentration (Cmax) in dog; format: ADME, organism-based, Canis lupus familiaris; details: in vivo
[6] = Tested for the pharmacokinetic data, area under the curve of concentration versus time in dog; format: ADME, organism-based, Canis lupus familiaris; details: in vivo
[7] = organism: Canis familiaris; assay: Tested for the pharmacokinetic data, time required to reach Cmax (Tmax) in dog; format: ADME, organism-based, Canis lupus familiaris; details: in vivo
[8] = Human immunodeficiency virus 1, T-lymphoid

Structure (SMILES)	IC50 [1] [nM]	IC50 [2] [nM]	IC95 [3, 8] [nM]	half-life [4] [min]	Cmax [5] [nM]	AUC [6] [µM·h]	T max [7] [min]	IC95 [3] [nM]
CC(C)(C)NC(=O)[C@@H]1CN(Cc2cccc(C(C)(C)NC(=O)OC(C)(C)C)c2)CCN1C[C@@H](O)C[C@@H](Cc1ccccc1)C(=O)N[C@@H]1c2ccccc2C[C@H]1O	392	28	> 400					
Cn1cc(CN2CCN(C[C@@H](O)C[C@@H](Cc3ccccc3)C(=O)N[C@@H]3c4ccccc4C[C@H]3O)[C@H](C(=O)NC(C)(C)C)C2)c2ccccc21	332	6.7	> 400					
CC(C)(C)NC(=O)[C@@H]1CN(Cc2cccnc2)CCN1C[C@@H](O)C[C@@H](Cc1ccccc1)C(=O)NC1c2cccc(Cl)c2C[C@H]1O (single isomer, unassigned)				45.8	250	0.256	40	
CC(C)(C)NC(=O)[C@@H]1CN(CCCC(F)(F)F)CCN1C[C@@H](O)C[C@@H](Cc1ccccc1)C(=O)N[C@@H]1c2ccccc2C[C@H]1O	568	15.3	> 400					
CC(C)(C)NC(=O)[C@@H]1CN(Cc2nc3ccccc3o2)CCN1C[C@@H](O)C[C@@H](Cc1ccccc1)C(=O)N[C@@H]1c2ccccc2C[C@H]1O	66	1.2	400					
CC(C)(C)NC(=O)[C@@H]1CN(Cc2cccnc2)CCN1C[C@@H](O)C[C@@H](Cc1cccnc1)C(=O)NC1c2cccc(F)c2C[C@H]1O (single isomer, unassigned)				28.7	268	0.245	40	
CC(C)(C)NC(=O)[C@@H]1CN(Cc2noc3ccccc23)CCN1C[C@@H](O)C[C@@H](Cc1ccccc1)C(=O)NC1c2ccccc2C[C@H]1O (stereo partly drawn)	71.5	1.17	400					
CC(C)(C)NC(=O)[C@@H]1CN(Cc2cccnc2)CCN1C[C@@H](O)C[C@@H](Cc1cccnc1)C(=O)NC1c2cccc(Cl)c2C[C@H]1O (single isomer, unassigned)				23.9	220	0.227	40	
C[C@@H]1CC[C@@H](O)[C@@H]1NC(=O)[C@H](Cc1ccc(F)cc1)C[C@H](O)CN1CCN(Cc2cccnc2)C[C@H]1C(=O)NC(C)(C)C				39.2	378	0.371	40	
Cn1cc(CN2CCN(C[C@@H](O)C[C@@H](Cc3ccccc3)C(=O)N[C@@H]3c4ccccc4C[C@H]3O)[C@H](C(=O)NC(C)(C)C)C2)ccc1=O	131	2.2	400					
CC(C)(C)NC(=O)[C@@H]1CN(Cc2cccnc2)CCN1C[C@@H](O)C[C@@H](Cc1ccc(F)cc1)C(=O)NC1c2cccc(Cl)c2C[C@H]1O (single isomer, unassigned)				50.5	180	0.181	40	
CC(C)(C)NC(=O)[C@@H]1CN(Cc2cccnc2)CCN1C[C@@H](O)C[C@@H](CC1CCCCC1)C(=O)NC1c2ccccc2C[C@H]1O (single isomer, unassigned)				54.4	232	0.26	40	
CC(C)(C)NC(=O)[C@@H]1CN(Cc2cccnc2)CCN1C[C@@H](O)C[C@@H](CC1CC1)C(=O)NC1c2cccc(Cl)c2C[C@H]1O (single isomer, unassigned)				23	626	0.566	40	
CC(C)(C)NC(=O)[C@@H]1CN(Cc2cccnc2)CCN1C[C@@H](O)C[C@@H](Cc1ccc(F)cc1)C(=O)N[C@@H]1c2cccc(F)c2C[C@H]1O				48.2	195	0.197	40	
CC(C)(C)NC(=O)[C@@H]1CN(Cc2cccnc2)CCN1C[C@@H](O)C[C@@H](CC1CCCCC1)C(=O)NC1c2cccc(F)c2C[C@H]1O (single isomer, unassigned)				48.2	148	0.236	40	
CC(C)(C)NC(=O)[C@@H]1CN(Cc2cccnc2)CCN1C[C@@H](O)C[C@@H](Cc1ccc(F)cc1)C(=O)NC1c2ccccc2C[C@H]1O (single isomer, unassigned)				44.6	264	0.258	40	
CC(C)(C)NC(=O)[C@@H]1CN(CC2(c3ccccc3)CC2)CCN1C[C@@H](O)C[C@@H](Cc1ccccc1)C(=O)N[C@@H]1c2ccccc2C[C@H]1O	257	7.7	> 400					
CC(C)(C)NC(=O)[C@@H]1CN(Cc2cccnc2)CCN1C[C@@H](O)C[C@@H](Cc1ccccc1)C(=O)NC1c2cccc(F)c2C[C@H]1O (single isomer, unassigned)				44.5	250	0.258	40	
CC(C)(C)NC(=O)[C@@H]1CN(Cc2cccnc2)CCN1C[C@@H](O)C[C@@H](CC1CC1)C(=O)NC1c2cccc(F)c2C[C@H]1O (single isomer, unassigned)				20.2	610	0.525	40	
CN(C)c1ccc2ccc(S(=O)(=O)N3CCN(C[C@@H](O)C[C@@H](Cc4ccccc4)C(=O)N[C@@H]4c5ccccc5C[C@H]4O)[C@H](C(=O)NC(C)(C)C)C3)cc2n1	2.2	0.22	50					
C[C@@H]1CC[C@@H](O)C1NC(=O)[C@H](Cc1ccccc1)C[C@H](O)CN1CCN(Cc2cccnc2)C[C@H]1C(=O)NC(C)(C)C (single isomer, unassigned)				31.5	554	0.512	40	
CC(C)(C)NC(=O)[C@@H]1CN(Cc2cccnc2)CCN1C[C@@H](O)C[C@@H](Cc1cccnc1)C(=O)N[C@@H]1c2ccccc2C[C@H]1O				43.4	313	0.291	40	
CC(C)(C)NC(=O)[C@@H]1CN(Cc2nc3ccccc3s2)CCN1C[C@@H](O)C[C@@H](Cc1ccccc1)C(=O)N[C@@H]1c2ccccc2C[C@H]1O	71.7	1.2	400					
CC(C)(C)NC(=O)[C@@H]1CN(Cc2cccnc2)CCN1C[C@@H](O)C[C@@H](Cc1ccccc1)C(=O)NC1c2ccccc2C[C@H]1O.O (single isomer, unassigned) [INDINAVIR]			50	27.1	358	0.307	40	50.5
CC(C)(C)NC(=O)[C@@H]1CN(Cc2cc3ccccc3o2)CCN1C[C@@H](O)C[C@@H](Cc1ccccc1)C(=O)NC1c2ccccc2C[C@H]1O (stereo partly drawn)	24	0.49	50					
CC1=CSC2C(CN3CCN(C[C@@H](O)C[C@@H](Cc4ccccc4)C(=O)N[C@@H]4c5ccccc5C[C@H]4O)[C@H](C(=O)NC(C)(C)C)C3)N=CN12 (stereo partly drawn)	378	6.7	> 400					
CC(C)(C)NC(=O)[C@@H]1CN(Cc2cccnc2)CCN1C[C@@H](O)C[C@@H](CC1CC1)C(=O)NC1c2ccccc2C[C@H]1O (single isomer, unassigned)				21.2	651	0.566	40	
C[C@@H]1CC[C@@H](O)C1NC(=O)[C@H](Cc1cccnc1)C[C@H](O)CN1CCN(Cc2cccnc2)C[C@H]1C(=O)NC(C)(C)C (single isomer, unassigned)				23.4	524	0.464	40	

— ChEMBL document CHEMBL1135057, “A combinatorial library of indinavir analogues and its in vitro and in vivo studies” (Bioorg Med Chem Lett, 2002)
